Test results from US20240376435A1, “KIDNEY ORGANOID AND METHOD FOR PRODUCING SAME” (OTSUKA PHARMACEUTICAL CO., LTD., priority 2021, published 2024).

How the values were obtained:
[1] = system: proximal tubule marker genes; experiment: Expression level of proximal tubule marker genes in kidney organoid (LTL MACS, quantitative PCR); format: cell-based, human; settings: for expression levels of maturation markers of proximal tubular cells: ACE2, AQP6, CUBN; for expression levels of almost all proximal tubule marker genes: agonist singly at 1 μM, eight days from day 15, among Control, CP1 and 9cisRA1 groups
Description: (§1) The kidney organoid was transferred to a centrifuge tube, and a cell dissociation solution (DPBS (+), 5 mg/mL Bacillus Licheniformis Protease (Sigma-Aldrich), 125 U/mL DNasc (Roche)) was added to the centrifuge tube. Up to 12 organoids were placed in one centrifuge tube. The centrifuge tube was incubated at 6° C. for 30 minutes. During the 30-minute incubation, pipetting was performed every five minutes to prepare a cell suspension containing cells separated from the organoids. To 1 mL of the obtained cell suspension, 4 mL of ice-cold diluted solution A (DPBS (−), 0.5% FBS, 2 mM EDTA, 125 U/mL DNase) was added. The centrifuge tube containing the diluted cell suspension was centrifuged at 300 rcf and 4° C. for 10 minutes, and the supernatant was removed. An ice-cooled diluted solution A was added to the precipitate for resuspension. The cell suspension was centrifuged again and the precipitate was resuspended in the diluted solution A. The obtained cell suspension was transferred to a tube with a 35 μm filter (Falcon) and passed through the filter to prepare a cell suspension containing single cells.
LTL-biotin (1:50) was added to the prepared cell suspension containing single cells and incubated at 4° C. for 15 minutes. Thereafter, the cell suspension was centrifuged at 300 rcf and 4° C. for five minutes, and the supernatant was removed. An ice-cooled diluted solution A was added to the precipitate for resuspension. Centrifuging the cell suspension and obtaining a cell suspension from the precipitate were performed two more times. Anti-biotin microBeads Ultra-Pure was added to the obtained cell suspension in the diluted solution A and incubated at 4° C. for 15 minutes. Thereafter, the cell suspension was centrifuged at 300 ref and 4° C. for five minutes, and the supernatant was removed. The ice-cooled diluted solution A was added to the precipitate for resuspension. This operation was repeated two more times. From the obtained cell suspension in the diluted solution A, cells to which LTL binds (also referred to as LTL-binding cells or LTL-positive cells) were obtained by a MACS method. More specifically, the cell suspension was applied to an MS column (Miltenyi Biotec B.V. & Co. KG) fixed in a magnetic field, and LTL-positive proximal tubular cells were obtained as a positive fraction.
(§2) Total RNA was extracted from the obtained cell suspension containing LTL-positive proximal tubular cells with a Purelink RNA micro kit (Thermofisher Scientific Inc.). Using total RNA obtained as a template, cDNA synthesis was performed using PrimeScript™ RTmastermix (Perfect Real Time) (Takara Bio Inc.). The synthesized cDNA was quantified by real-time PCR with TB Green® Premix Ex Taq™ II (Tli RNase H Plus) (TaKaRa Bio Inc.). Expression level analysis was performed using this quantitative PCR.
On the 15th day of differentiation induction, the induction medium C was replaced with STEMdiff APEL2 medium (0.3 μM CP775146, 1 μM 9-cis retinoic acid, 1% PFHM II, Antibiotic-Antimycotic), and the obtained early kidney organoids were further cultured for eight days (until the 23rd day of differentiation induction).
On the 23rd day of differentiation induction, the degree of maturation of the proximal tubule was examined. The degree of maturation was determined based on the expression level of maturation markers of proximal tubular cells in the kidney organoid by the MACS method with LTL.
In the step C, CP1 group was prepared by culturing, for eight days, the kidney organoid on the 15th day of differentiation induction in STEMdiff APEL2 medium (1 μM CP775146, 1% PFHM II, Antibiotic-Antimycotic), which is a medium obtained by removing retinoic acid from the induction medium C. […]

[2] = system: PPARA downstream gene group; experiment: Expression level of PPARA downstream gene group in kidney organoid (LTL MACS, quantitative PCR); format: cell-based, human; settings: agonist singly at 1 μM, eight days from day 15; among Control, CP1 and 9cisRA1 groups
Description: as §1, with “The cell suspension was centrifuged again and the precipitate was resuspended in the diluted solution A. The obtained cell suspension was transferred to a tube with a 35 μm filter (Falcon) and passed through the filter to prepare a cell suspension containing single cells.” left out
as §2, with “Using total RNA obtained as a template, cDNA synthesis was performed using PrimeScript™ RTmastermix (Perfect Real Time) (Takara Bio Inc.).” left out, “PCR. […]” for “PCR.”

Row | Compound | expression levels of almost all proximal tubule marker genes [1] | expression levels of almost all PPARA downstream gene groups [2] | other results
1 | CCC(=O)NC[C@H](Cc1ccc(OCCc2nc(-c3ccccc3)oc2C)cc1)N/C(C)=C\C(=O)c1ccc(C(F)(F)F)cc1 [GW6471] | – | – | expression levels of maturation markers of proximal tubular cells ([1]; Comparative Example 1, PPARA antagonist at a predetermined concentration in step C, vs control, UGT2A3, AZGP1, BHMT, LRP2, ABCB1, APOA1, APOC3, FABP1): significantly decreased; expression levels of SLC39A4 and CYP27A1 ([1]; Comparative Example 1, PPARA antagonist in step C, vs control): tendency for the expression levels of SLC39A4 (FIG. 12c) and CYP27A1 (FIG. 12l) to decrease; expression levels of maturation markers of proximal tubular cells ([1]; Comparative Example 2, RXR antagonist in step C, vs control, UGT2A3, AZGP1, SLC39A4, BHMT, LRP2, ABCB1, APOA1, APOC3, CYP27A1, FABP1): significantly decreased
2 | CC(C)c1ccc(CC(=O)N2CCC[C@@H](c3cccc(OC(C)(C)C(=O)O)c3)C2)cc1 [CP775146] | No significant difference | No significant difference | –
3 | Cc1cccc(Nc2cc(Cl)nc(SCC(=O)O)n2)c1C [pirinic acid] | – | – | expression of proximal tubule markers ([1]; Example 9, pirinic acid alone in step C, n=3): increased
4 | CC1=C(/C=C/C(C)=C\C=C\C(C)=C\C(=O)O)C(C)(C)CCC1 [9-cis retinoic acid] | No significant difference | No significant difference | –
